Earlier results as cited in patent US11701425B2, “Valerian composition and related methods” (Société des Produits Nestlé S.A., priority 2016, dated 2023).

Conditions: reported value, no test by the applicant

Question: Which pKa does the source give for `CC1=C2[C@H](/C=C(\C)C(=O)O)CC[C@@H](C)[C@H]2CC1` [valerenic acid] here?
Answer: The pKa was “about 5”.

Question: With `CCCC(CCC)C(=O)O` [valproic acid] as the molecule, how does the pKa read?
Answer: The pKa was “about 5”.
